According to publication PMC5853558, “De novo identification of lipid II binding lipopeptides with antibacterial activity against vancomycin-resistant bacteria” (Chemical Science, 2017):
Values after ≈ are worked out from the molar mass of the structure shown. *1 amine or outer side, *2 acyl side, *3 side chain or, on linkers, in order; H or OH if unused. Where a SMILES comes first, the peptide text is derived from it. Bridges are numbered along the chain shown (N, C = ends). [ ]: non-standard residue; d: D form. The star is where a group is joined. TBMB = c1c(C[*:1])cc(C[*:3])cc1C[*:2]; NHDecyl = CCCCCCCCCCN*

Experiments:
[1] = test system: C55-PP; assay: Antagonization assay with C55-PP; format: cell-based, M. luteus; parameters: key to Result with antagonist C55-PP: +: antagonization of antibiotic activity; -: no antagonization of antibiotic activity; details: Supplemental table S10; peptide at 4x MIC, M. luteus, 16 h at 30°C, growth observed visually
Experimental: (§1) To assess the role of lipid II in the mode of action of the lipopeptides a lipid II antagonization assay was employed.[18],[33] This assay was performed by premixing P8-D-C10 or the optimized P8-D-(S6R, R15A)-C10 with an excess of lipid II prior to addition of a live culture of M. luteus. […] To probe the stereochemical aspects of lipid II recognition by the optimized P8-D-(S6R, R15A)-C10 lipopeptide we also prepared and tested the corresponding enantiomeric L-peptide species P8-L-(S6R, R15A)-C10. […] Given that lipid II is a chiral biomolecule we had expected the enantiomeric lipopeptides to have different activities based on the assumption that they would interact differently with lipid II. To further investigate this phenomenon we employed the same lipid II antagonization assay described above. […] To explain this observation we hypothesize that the two enantiomeric peptides interact primarily with the pyrophosphate moiety of lipid II and are therefore less influenced by the chiral elements present elsewhere in the lipid II molecule. The pyrophosphate group is known to be a binding site for many natural occurring lipid II binding peptides.[15],[16] […] To test the hypothesis that both the P8-D-(S6R, R15A)-C10 and P8-L-(S6R, R15A)-C10 lipopeptides interact with the pyrophosphate moiety we performed an additional antagonizaiton experiment using C55-PP.
(§2) Section 4 Biological and biochemical experiments
(§3) 4.1 Minimum inhibitory concentration assay
(§4) MIC values were determined by using the broth microdilution method. Peptides were dissolved first in DMSO and diluted with broth so that the final peptide concentration was 1024 µg/ml and the DMSO concentration was 4%. Peptide serial dilutions were made in TSB in a polypropylene 96-wells plate using 50 µl volumes. An overnight culture of the organism of interest was diluted to and OD600 of 0.01 and grown until they reach 0.5. The culture was then diluted to 1 x 10^6 CFU/ml and 50 µl of this suspension was added to each well. The highest concentrations were then 512 µg/ml peptide and 2% DMSO. The plates were incubated at the preferred growth temperature of the organism that was used and 250 rpm. […] When […]
(§5) determining the MICs of the lipidated peptides, the lipopeptides were first dissolved in DMSO and diluted with TSB so that the peptide concentration was 128 µg/ml and the DMSO concentration was 4%. After inoculation the highest peptide concentration evaluated was 64 µg/ml and the DMSO concentration was 2%. A DMSO control was tested for each strain to ensure the DMSO did not affect the growth of the particular strain. […]
(§6) 4.4 Antagonization assays
(§7) Stock solutions of each peptide antibiotic were prepared so that their final concentration in the assay would be 4x MIC. Peptides were transferred to a 96 wells plate and lipid II or C15-P (farnesyl-phosphate) was added at 4 molar equivalents in a final volume of 50 µl. Each well received 50 µl of bacterial suspension (M. luteus) at 1 x 10^6 CFU/ml and the plates were incubated for 16 h at 250 rpm and 30°C. Growth was observed visually (see supplemental table S10 for results).

[2] = test system: Sheep blood; assay: Hemolysis assay; format: cell-based
Experimental: Sheep blood in Alsever’s solution (2 mL) was diluted with PBS (13 mL) and centrifuged (2,000 RPM, 5 min). The supernatant was discarded and the cells were washed with another 13 mL of PBS and centrifuged. Washing was continued until the supernatant was clear. After the final wash the supernatant was discarded and the packed cells were kept on ice. Serial dilutions of each peptide were made in 50 µl PBS with the highest tested concentration 64 µg/mL in PBS, 2%
DMSO. The packed cells (150 µL) were suspended in PBS (10 mL) and 50 µL of this suspension was added to each well. A well plate column containing 0.1% triton x-100 in DI water was used as the 100% lysis control and a second column with PBS (with 2% DMSO) served as the 0% lysis control. After incubation at 37°C for 1h the plates were centrifuged (2,000 RPM, 5 min) and 25 µL of the supernatant was added to 100 µL DI water in a flat-bottom 96-wells plate (polystyrene). […]

[3] = test system: M. luteus (NCTC2665); assay: microbe, parasite or virus in culture; format: cell-based, Micrococcus luteus
Summary of the method: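 Dilution series of peptide in TSB, up to 512 µg/ml final (lipopeptides up to 64 µg/ml), DMSO 2% final. Mid-log inoculum suspension at 1 x 10^6 CFU/ml, equal volume per well. Incubation at the strain's growth temperature with shaking.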

[4] = test system: E. faecium (VRE155); assay: microbe, parasite or virus in culture; format: cell-based, Enterococcus faecium
Experimental: as §2, §3, §4, §5

[5] = test system: E. faecium (E980); assay: microbe, parasite or virus in culture; format: cell-based, Enterococcus faecium
Experimental: as §2, §3, §4, §5

[6] = test system: E. faecium (VRE2297); assay: microbe, parasite or virus in culture; format: cell-based, Enterococcus faecium; details: Table 2; vancomycin-resistant isolate from hospitalized patients; broth microdilution in TSB, 16 h; highest tested 64 µg/ml
Experimental: as §2, §3, §4, §5

[7] = test system: E. faecium (VRE0321); assay: microbe, parasite or virus in culture; format: cell-based, Enterococcus faecium
Experimental: as §2, §3, §4, §5

[8] = test system: E. faecium (VRE7391); assay: microbe, parasite or virus in culture; format: cell-based, Enterococcus faecium
Experimental: as §2, §3, §4, §5

[9] = test system: lipid II; assay: Lipid II antagonization assay; format: cell-based, M. luteus; parameters: key to Result with antagonist Lipid II: +: antagonization of antibiotic activity; -: no antagonization of antibiotic activity
Experimental: as §1, §2, §3, §4, §5, §6, §7

[10] = test system: B. subtilis (168); assay: microbe, parasite or virus in culture; format: cell-based
Experimental: as §2, §3, §4, §5

[11] = test system: S. epidermidis (1587); assay: microbe, parasite or virus in culture; format: cell-based; details: Table 2; broth microdilution in TSB, 16 h, read visually; highest tested 64 µg/ml
Experimental: as §2, §3, §4, §5

[12] = test system: S. pyogenes (5448); assay: microbe, parasite or virus in culture; format: cell-based
Experimental: as §2, §3, §4, §5

[13] = test system: C15-P (farnesyl-phosphate); assay: Antagonization assay with C15-P (negative control); format: cell-based; parameters: key: +: antagonization of antibiotic activity; -: no antagonization of antibiotic activity; details: Supplemental table S10, peptide at 4x MIC, 4 molar equivalents, M. luteus, 16 h at 30°C, growth observed visually
Experimental: as §2, §3, §4, §5, §6, §7
Supplemental table S10. Lipid II antagonization assay results
Result with indicated antagonista
Antibiotic compound Lipid II C55-PP C15-Pb […]
a + = antagonization of antibiotic activity; - = no antagonization of antibiotic activity; b C -P was used as a negative […]
control (C15-P is a watersoluble analogue of the lipid II precursor undecaprenol phosphate).
4.6 Scanning Electron Microscopy
E. faecium E155 was inoculated at an OD600nm of 0.05 into 300 µL of cation adjusted TSB containing P8-D-(S6R, R15A)-C10 or nisin at (both a 2x MIC) along with 1% glucose and 1%
DMSO. An untreated culture was used as control. Following overnight incubation (ca. 16 hr) bacterial cells were fixed for 15 minutes with 1% (v/v) glutaraldehyde in phosphate buffered saline (PBS) at room temperature on poly-L-lysine covered glass slides (12 mm diameter). […]

[14] = Supplemental table S7, P8 with varying lipids, broth microdilution
[15] = Supplemental table S9, MIC values of Table 2 expressed in µM
[16] = Supplemental table S9, vancomycin-resistant isolate, MIC values of Table 2 expressed in µM
[17] = Table 2, broth microdilution in TSB, 16 h, read visually, highest tested 64 µg/ml
[18] = Table 2, vancomycin-resistant isolate from hospitalized patients, broth microdilution in TSB, 16 h, highest tested 64 µg/ml

SMILES: CCCCCCCCCCNC(=O)CNC(=O)[C@H]1CSCc2cc3cc(c2)CSC[C@@H](NC(=O)[C@@H](CC(C)C)NC(=O)[C@@H](CC(C)C)NC(=O)[C@@H](CO)NC(=O)[C@@H](CCC(N)=O)NC(=O)[C@@H](CC(C)C)NC(=O)[C@@H](CC(C)C)NC(=O)[C@H](NC(=O)[C@@H](C)N)CSC3)C(=O)N2CCC[C@@H]2C(=O)N[C@H](Cc2ccc(O)cc2)C(=O)N[C@H](CO)C(=O)N[C@H]([C@H](C)O)C(=O)N[C@H](Cc2c[nH]cn2)C(=O)N[C@H](CCCNC(=N)N)C(=O)N1 [Peptide P8-D-C10] (H-[dA][dC][dL][dL][dQ][dS][dL][dL][dC][dP][dY][dS][dT][dH][dR][dC]G-NHDecyl; linker 2-9-16 via TBMB)
- Result with antagonist C55-PP [1]: +
- Hemolysis 32 µg/ml (after 1 h) ([2]; Supplemental table S7, sheep blood cells in PBS, 32 µg/ml, 1 h at 37°C, absorption at 414 nm): 6%
- Hemolysis ([2]; Supplemental table S9, 1 hour incubation at 37 °C, lipopeptides at 32 µg/mL): 6%
- MIC M. luteus [3, 14]: 4 µg/mL (≈ 1.89 µM)
- MIC M. luteus (NCTC2665) [3, 15]: 3.8 µM (≈ 8.05 µg/mL)
- MIC VRE E155 [4, 14]: 4 µg/mL (≈ 1.89 µM)
- MIC E. faecium (VRE155) [4, 16]: 3.8 µM (≈ 8.05 µg/mL)
- MIC E. faecium (E980) [5, 15]: 30.3 µM (≈ 64.2 µg/mL)
- MIC E. faecium (E980) [5, 17]: 32 μg mL^–1
- MIC E. faecium (VRE2297) [6]: 8–16 μg mL^–1
- MIC E. faecium (VRE0321) [7, 16]: 3.8 µM (≈ 8.05 µg/mL)
- MIC E. faecium (VRE0321) [7, 18]: 4 μg mL^–1
- MIC E. faecium (VRE7391) [8, 16]: 7.6 µM (≈ 16.1 µg/mL)
- MIC E. faecium (VRE7391) [8, 18]: 8 μg mL^–1
- Result with antagonist Lipid II ([9]; Supplemental table S10, peptide at 4x MIC, antagonist at 4 molar equivalents, M. luteus 1 x 10^6 CFU/ml, 16 h at 30°C, growth observed visually): +
- Effect of pre-incubation with lipid II on antibacterial activity ([9]; premixed with an excess of lipid II before addition of a live culture of M. luteus): antagonization of antibacterial activity
- MIC B. subtilis ([10]; Supplemental table S6, lipidated phage display hits, n.a. = not active, highest tested conc 64 µg/ml): 8 to 16 µg/mL
- MIC B. subtilis (168) [10, 17]: 8–16 μg mL^–1
- MIC S. epidermidis (1587) [11]: 64 μg mL^–1
- MIC S. pyogenes (5448) [12, 15]: 7.6 µM (≈ 16.1 µg/mL)
- MIC S. pyogenes (5448) [12, 17]: 8 μg mL^–1
- Result with antagonist C15-P [13]: -
